# Source: patent publication US10745382B2 (BRISTOL-MYERS SQUIBB COMPANY, priority 2015, dated 2020)
# pIC50: −log10 of the molar value.
# Molecular target: T1, PD-1/PD-L1 (Homo sapiens, UniProt Q9NZQ7)
# T1 construct: made in house; host or cells: HEK293T
# Assay: PD-1/PD-L1 Homogenous Time-Resolved Fluorescence (HTRF) binding assay
# Settings: PD-L1-His 10 nM, PD-1-Ig 20 nM; value given as range class; read-out: Range or IC50
# How it was run: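 Detection by europium cryptate anti-Ig plus APC anti-His (1 nM and 20 nM final) with HTRF signal. Buffer was dPBS, 0.1% BSA, 0.05% Tween-20.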
# T1 sequence (Q9NZQ7 with tags, fused parts or gaps): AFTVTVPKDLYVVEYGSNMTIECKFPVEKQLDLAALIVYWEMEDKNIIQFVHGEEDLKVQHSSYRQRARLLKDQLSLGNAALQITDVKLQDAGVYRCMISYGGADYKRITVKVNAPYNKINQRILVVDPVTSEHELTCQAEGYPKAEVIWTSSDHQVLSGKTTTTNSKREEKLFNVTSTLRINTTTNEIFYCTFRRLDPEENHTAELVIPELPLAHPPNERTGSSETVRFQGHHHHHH
row,pIC50,SMILES
1,5.70 to 7.00,"Cc1c(COc2cc(OCc3cncc(C#N)c3)c(CN3CCCC[C@H]3C(=O)O)cc2Cl)cccc1-c1cccc(C(=O)N2CCCC2)c1C [Example 4037, (S)-1-(5-chloro-2-((5-cyanopyridin-3-yl)methoxy)-4-((2,2′-dimethyl-3′-(pyrrolidine-1-carbonyl)-[1,1′-biphenyl]-3-yl)methoxy)benzyl)piperidine-2-carboxylic Acid]"
2,8.00 to 9.68,"CC(=O)NC1CCN(CCCOc2cccc(-c3cccc(COc4cc(OCc5cncc(C#N)c5)c(CN5CCCC[C@H]5C(=O)O)cc4Cl)c3C)c2Cl)CC1 [Example 1078, (S)-1-(4-((3′-(3-(4-acetamidopiperidin-1-yl)propoxy)-2′-chloro-2-methyl-[1,1′-biphenyl]-3-yl)methoxy)-5-chloro-2-((5-cyanopyridin-3-yl)methoxy)benzyl)piperidine-2-carboxylic Acid]"
3,8.00 to 9.68,"Cc1c(CCCCN2CC[C@@H](O)C2)cccc1-c1cccc(COc2cc(OCc3cncc(C#N)c3)c(CNC(CO)(CO)CO)cc2Cl)c1C [Example 4066, (R)-5-((4-chloro-2-(((1,3-dihydroxy-2-(hydroxymethyl)propan-2-yl)amino)methyl)-5-((3′-(4-(3-hydroxypyrrolidin-1-yl)butyl)-2,2′-dimethyl-[1,1′-biphenyl]-3-yl)methoxy)phenoxy)methyl)nicotinonitrile]"
4,8.00 to 9.68,"Cc1c(COc2cc(OCc3cncc(C#N)c3)c(CNC(C)(C)CO)cc2Cl)cccc1-c1cccc(OCCCN2CC[C@@H](O)C2)c1Cl [Example 2067, (R)-5-((4-chloro-5-((2′-chloro-3′-(3-(3-hydroxypyrrolidin-1-yl)propoxy)-2-methyl-[1,1′-biphenyl]-3-yl)methoxy)-2-(((1-hydroxy-2-methylpropan-2-yl)amino)methyl)phenoxy)methyl)nicotinonitrile]"
5,8.00 to 9.68,"Cc1c(COc2cc(OCc3cncc(C#N)c3)c(CN[C@@H](CC(C)C)C(=O)O)cc2Cl)cccc1-c1cccc(OCCCN2CC[C@@H](O)C2)c1C [Example 4153, (5-chloro-2-((5-cyanopyridin-3-yl)methoxy)-4-((3′-(3-((R)-3-hydroxypyrrolidin-1-yl)propoxy)-2,2′-dimethyl-[1,1′-biphenyl]-3-yl)methoxy)benzyl)-L-leucine]"
6,8.00 to 9.68,"Cc1c(COc2cc(OCc3cncc(C(=N)N4CCCC(CO)C4)c3)c(CNC(C)(CO)CO)cc2Cl)cccc1-c1cccc(OCCCN2CCCC(CO)C2)c1Cl (stereo not shown) [Example 2099, 2-((5-chloro-4-((2′-chloro-3′-(3-(3-(hydroxymethyl)piperidin-1-yl)propoxy)-2-methyl-[1,1′-biphenyl]-3-yl)methoxy)-2-((5-((3-(hydroxymethyl)piperidin-1-yl)(imino)methyl)pyridin-3-yl)methoxy)benzyl)amino)-2-methylpropane-1,3-diol]"
7,8.00 to 9.68,"Cc1c(COCCN2CC[C@@H](O)C2)cccc1-c1cccc(COc2cc(OCc3cncc(C#N)c3)c(CN[C@@](C)(CO)C(=O)O)cc2Cl)c1C [Example 4123, (S)-2-((5-chloro-2-((5-cyanopyridin-3-yl)methoxy)-4-((3′-((2-((R)-3-hydroxypyrrolidin-1-yl)ethoxy)methyl)-2,2′-dimethyl-[1,1′-biphenyl]-3-yl)methoxy)benzyl)amino)-3-hydroxy-2-methylpropanoic Acid]"
8,8.00 to 9.68,"Cc1c(COc2cc(OCc3cncc(C#N)c3)c(CN[C@](C)(CO)C(=O)O)cc2Cl)cccc1-c1cccc(OCCCN(C)C[C@H](O)CO)c1Cl [Example 2024, (R)-2-((5-chloro-4-((2′-chloro-3′-(3-(((S)-2,3-dihydroxypropyl)(methyl)amino)propoxy)-2-methyl-[1,1′-biphenyl]-3-yl)methoxy)-2-((5-cyanopyridin-3-yl)methoxy)benzyl)amino)-3-hydroxy-2-methylpropanoic Acid]"
9,8.00 to 9.68,"Cc1c(COc2cc(OCc3cncc(C#N)c3)c(CO)cc2Cl)cccc1-c1cccc(OCCCNC[C@H](O)CO)c1Cl [Example 2005, (S)-5-((4-chloro-5-((2′-chloro-3′-(3-((2,3-dihydroxypropyl)amino)propoxy)-2-methyl-[1,1′-biphenyl]-3-yl)methoxy)-2-(hydroxymethyl)phenoxy)methyl)nicotinonitrile]"
10,8.00 to 9.68,"CC(=O)NC1CCN(CCCOc2cccc(-c3cccc(COc4cc(OCc5cncc(C#N)c5)c(CO)cc4Cl)c3C)c2Cl)C1 (stereo not shown) [Example 2021, N-(1-(3-((2-chloro-3′-((2-chloro-5-((5-cyanopyridin-3-yl)methoxy)-4-(hydroxymethyl)phenoxy)methyl)-2′-methyl-[1,1′-biphenyl]-3-yl)oxy)propyl)pyrrolidin-3-yl)acetamide]"
11,8.00 to 9.68,"Cc1c(COc2cc(OCc3cncc(C#N)c3)c(CNC(C)(CO)CO)cc2Cl)cccc1-c1cccc(OCCCNC[C@H](O)CO)c1Cl [Example 2097, (S)-5-((4-chloro-5-((2′-chloro-3′-(3-((2,3-dihydroxypropyl)amino)propoxy)-2-methyl-[1,1′-biphenyl]-3-yl)methoxy)-2-(((1,3-dihydroxy-2-methylpropan-2-yl)amino)methyl)phenoxy)methyl)nicotinonitrile]"
12,8.00 to 9.68,"CN(CCCOc1cccc(-c2cccc(COc3cc(OCc4cncc(C#N)c4)c(CN[C@](C)(CO)C(=O)O)cc3Cl)c2Cl)c1Cl)C[C@H](O)CO [Example 2064, (R)-2-((5-chloro-2-((5-cyanopyridin-3-yl)methoxy)-4-((2,2′-dichloro-3′-(3-(((S)-2,3-dihydroxypropyl)(methyl)amino)propoxy)-[1,1′-biphenyl]-3-yl)methoxy)benzyl)amino)-3-hydroxy-2-methylpropanoic Acid]"
13,8.00 to 9.68,"Cc1c(COc2cc(OCc3cncc(C#N)c3)c(CN3CCCC[C@H]3C(=O)O)cc2Cl)cccc1-c1cccc(OCCCN(C)CCO)c1C [Example 2233, (2S)-1-(5-chloro-2-((5-cyanopyridin-3-yl)methoxy)-4-((3′-(3-((2-hydroxyethyl)(methyl)amino)propoxy)-2,2′-dimethylbiphenyl-3-yl)methoxy)benzyl)piperidine-2-carboxylic Acid]"
14,7.00 to 8.00,"Cc1c(COc2cc(OCc3cncc(C#N)c3)c(CN[C@H](CO)C(=O)O)cc2Cl)cccc1-c1cccc(OCCN2CCOCC2)c1 [Example 1001, (R)-2-((5-chloro-2-((5-cyanopyridin-3-yl)methoxy)-4-((2-methyl-3′-(2-morpholinoethoxy)-[1,1′-biphenyl]-3-yl)methoxy)benzyl)amino)-3-hydroxypropanoic Acid]"
15,8.00 to 9.68,"Cc1ccc(COc2cc(OCc3cccc(-c4cccc(OCCCN5CC[C@@H](O)C5)c4C)c3C)c(Cl)cc2CNC(CO)(CO)CO)cc1C [Example 4507, (R)-2-((5-chloro-2-((3,4-dimethylbenzyl)oxy)-4-((3′-(3-(3-hydroxypyrrolidin-1-yl)propoxy)-2,2′-dimethyl-[1,1′-biphenyl]-3-yl)methoxy)benzyl)amino)-2-(hydroxymethyl)propane-1,3-diol]"
16,8.00 to 9.68,"Cc1c(COc2cc(OCc3cncc(C#N)c3)c(CN3CCN(CCO)CC3)cc2Cl)cccc1-c1cccc(OCCCN2CCN(CCO)CC2)c1C [Example 2258, 5-((4-chloro-2-((4-(2-hydroxyethyl)piperazin-1-yl)methyl)-5-((3′-(3-(4-(2-hydroxyethyl)piperazin-1-yl)propoxy)-2,2′-dimethylbiphenyl-3-yl)methoxy)phenoxy)methyl)nicotinonitrile]"
